Results published in US10508111B2, “6-[5-amino-6-(2-ethoxyethoxy)-imidazo[4,5-B]pyridin-3-yl]-nicotinonitrile derivatives and their use as IRAK inhibitors” (GALAPAGOS NV, priority 2015, dated 2019).

Assays:
Assay type in all cases: biochemical
[1] = molecular target: T1, c-SRC (Homo sapiens, UniProt P12931); test: Kinase selectivity profiling (focused panel), radioactive filter plate assay: c-SRC; conditions: PolyGT substrate, 0.25 μM ATP, 60 min
T1 construct: purchased Carna Biosciences 08-173
Procedure: (§1) The purpose of this assay is to determine the activity and selectivity of a compound of the invention on a selected range of human kinases which may result in undesirable side-effects when inhibited (Dy & Adjei 2013; Force & Kolaja 2011).
(§2) The IC50 value for off-target kinases is determined in radioactive filter plate assays. The principle of the assays consists in the measurement of incorporated ^33P into a peptide substrate upon phosphorylation by the kinase enzyme using [γ-^33P]ATP and ATP. Unincorporated ^33P is removed by loading the samples on a filter plate (using a harvester, PerkinElmer) and 6 subsequent washing steps. Incorporated ^33P in the peptide substrate is measured by a scintillation counter (Topcount, PerkinElmer) after addition of MicroScint™-20 (PerkinElmer, 6013621) to the filter plates.
(§3) 5 μL of a water dilution series of test compound (starting from 20 μM or 6.6 μM highest concentration), from a 100% DMSO stock solution, 1/5 dilution, is added to the wells (final DMSO concentration of 1% in reaction assay). Enzyme and peptide substrate are used at optimized concentrations (cf. Table VI). The enzyme and substrate are diluted in assay buffer to a total volume of 11 μL. The reaction is started by addition of 9 μL of ATP+[γ-^33P]ATP, diluted in the same buffer as enzyme and substrate. The mixture is incubated at 30° C. The reaction is terminated by adding 25 μL of 150 mM phosphoric acid. Samples are transferred to filter plates and incorporated radioactivity is measured using a scintillation counter.
(§4) The incubation time, assay buffer composition, and concentrations of ATP, enzyme and substrate are reported in Table VI for example kinase off-target assays.
(§5) 10 μM staurosporine (1% DMSO) is used as positive control (100% inhibition); vehicle (water+1% DMSO) as negative control (0% inhibition).

[2] = molecular target: T2, CDK2 (Homo sapiens, UniProt P24941); test: Kinase selectivity profiling (focused panel), radioactive filter plate assay: CDK2; conditions: Histone H1-derived peptide, 0.1 μM ATP, 60 min
T2 construct: purchased Carna Biosciences 04-103
Procedure: as §1, §2, §3, §4, §5

[3] = molecular target: T3, ABL (Homo sapiens, UniProt P00519); test: Kinase selectivity profiling (focused panel), radioactive filter plate assay: ABL; conditions: PolyGT substrate, 0.5 μM ATP, 60 min
T3 construct: purchased Life Technologies P3049
Procedure: as §1, §2, §3, §4, §5

[4] = molecular target: T4, human IRAK-4 (Homo sapiens, UniProt Q9NWZ3); test: IC50 determination for human IRAK-4, radioactive filter plate assay; conditions: RIP140 substrate, 1 μM ATP + [γ-33P]ATP, 30° C., 45 min; read-out: hIRAK-4 IC50
T4 construct: purchased Carna Biosciences 09-145
T4 sequence (Q9NWZ3 1-460): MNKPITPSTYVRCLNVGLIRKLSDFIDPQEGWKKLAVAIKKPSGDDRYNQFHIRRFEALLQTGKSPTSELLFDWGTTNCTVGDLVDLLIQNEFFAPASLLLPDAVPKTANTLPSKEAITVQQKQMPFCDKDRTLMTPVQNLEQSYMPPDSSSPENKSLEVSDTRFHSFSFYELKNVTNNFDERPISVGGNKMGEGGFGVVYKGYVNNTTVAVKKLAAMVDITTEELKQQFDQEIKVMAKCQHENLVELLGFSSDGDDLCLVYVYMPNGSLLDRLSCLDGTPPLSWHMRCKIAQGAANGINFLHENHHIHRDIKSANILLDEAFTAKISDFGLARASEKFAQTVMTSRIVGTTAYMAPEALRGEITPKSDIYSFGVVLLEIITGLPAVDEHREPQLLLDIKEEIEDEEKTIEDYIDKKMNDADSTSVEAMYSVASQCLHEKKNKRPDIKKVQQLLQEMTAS
Procedure: The IC50 value for IRAK-4 is determined in a radioactive filter plate assay. The principle of the assay consists in the measurement of incorporated ^33P into the RIP140 substrate upon phosphorylation by the enzyme IRAK-4 using [γ-^33P]ATP and ATP. Unincorporated ^33P is removed by loading the samples on a filter plate (using a harvester, PerkinElmer) and 6 subsequent washing steps. Incorporated ^33P in RIP140 is measured by a scintillation counter (Topcount, PerkinElmer) after addition of MicroScint™-20 (PerkinElmer, 6013621) to the filter plates.
5 μL of a water dilution series of test compound (starting from 20 μM or 6.6 μM highest concentration), from a 100% DMSO stock solution, 1/5 dilution, is added to the wells (final DMSO concentration of 1% in reaction assay). IRAK-4 (Carna Biosciences, 09-145) and RIP140 (SEQ ID1, cf. Table VII) are used at a final concentration of 10 ng/mL and 4 μM, respectively. The enzyme and substrate are diluted in 25 mM Tris pH 7.5, 0.025% Triton X-100, 5 mM MnCl2, and 2 mM DTT to a total volume of 11 μL. The reaction is started by addition of 9 μL of 1 μM ATP (Sigma, A6419-5G)+0.25 μCi [γ-^33P]ATP (PerkinElmer, NEG602K001MC), diluted in the same buffer as enzyme and substrate. The mixture is incubated at 30° C. for 45 min. The reaction is terminated by adding 25 μL of 150 mM phosphoric acid (VWR, 1.00573.1000). Samples are transferred to filter plates and incorporated radioactivity is measured using a scintillation counter.
as §5

[5] = molecular target: T5, CDK9 (Homo sapiens, UniProt P50750); test: Kinase selectivity profiling (focused panel), radioactive filter plate assay: CDK9; conditions: PDKtide, 0.25 μM ATP, 60 min
T5 construct: purchased Millipore 14-685
Procedure: as §1, §2, §3, §4, §5

[6] = molecular target: T6, GSK3b (Homo sapiens, UniProt P49841); test: Kinase selectivity profiling (focused panel), radioactive filter plate assay: GSK3b; conditions: Phospho glycogen synthase peptide2, 1.5 μM ATP, 90 min
T6 construct: purchased Carna Biosciences 04-141
Procedure: as §1, §2, §3, §4, §5

T6 sequence (P49841 whole entry): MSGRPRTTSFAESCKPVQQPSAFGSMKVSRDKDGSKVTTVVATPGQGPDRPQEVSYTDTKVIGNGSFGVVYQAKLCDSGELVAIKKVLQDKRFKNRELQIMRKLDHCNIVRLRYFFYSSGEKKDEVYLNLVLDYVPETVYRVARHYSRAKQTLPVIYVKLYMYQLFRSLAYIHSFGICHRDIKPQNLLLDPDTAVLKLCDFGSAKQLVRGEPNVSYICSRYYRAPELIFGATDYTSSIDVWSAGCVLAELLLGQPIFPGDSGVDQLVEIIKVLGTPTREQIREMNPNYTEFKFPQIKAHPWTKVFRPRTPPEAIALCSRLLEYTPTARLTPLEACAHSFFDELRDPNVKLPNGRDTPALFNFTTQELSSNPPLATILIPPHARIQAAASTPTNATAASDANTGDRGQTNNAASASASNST
T5 sequence (P50750 whole entry): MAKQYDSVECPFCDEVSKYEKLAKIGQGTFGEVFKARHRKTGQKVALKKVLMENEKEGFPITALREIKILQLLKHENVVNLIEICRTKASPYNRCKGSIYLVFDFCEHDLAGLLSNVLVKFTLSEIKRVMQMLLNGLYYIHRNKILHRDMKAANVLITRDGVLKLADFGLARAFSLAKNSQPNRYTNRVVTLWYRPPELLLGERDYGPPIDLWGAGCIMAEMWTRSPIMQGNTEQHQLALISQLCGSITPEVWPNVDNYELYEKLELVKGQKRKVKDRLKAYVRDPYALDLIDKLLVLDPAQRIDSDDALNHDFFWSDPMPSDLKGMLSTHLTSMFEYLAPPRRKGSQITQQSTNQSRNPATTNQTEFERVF
T5 sequence (O60563 whole entry partner): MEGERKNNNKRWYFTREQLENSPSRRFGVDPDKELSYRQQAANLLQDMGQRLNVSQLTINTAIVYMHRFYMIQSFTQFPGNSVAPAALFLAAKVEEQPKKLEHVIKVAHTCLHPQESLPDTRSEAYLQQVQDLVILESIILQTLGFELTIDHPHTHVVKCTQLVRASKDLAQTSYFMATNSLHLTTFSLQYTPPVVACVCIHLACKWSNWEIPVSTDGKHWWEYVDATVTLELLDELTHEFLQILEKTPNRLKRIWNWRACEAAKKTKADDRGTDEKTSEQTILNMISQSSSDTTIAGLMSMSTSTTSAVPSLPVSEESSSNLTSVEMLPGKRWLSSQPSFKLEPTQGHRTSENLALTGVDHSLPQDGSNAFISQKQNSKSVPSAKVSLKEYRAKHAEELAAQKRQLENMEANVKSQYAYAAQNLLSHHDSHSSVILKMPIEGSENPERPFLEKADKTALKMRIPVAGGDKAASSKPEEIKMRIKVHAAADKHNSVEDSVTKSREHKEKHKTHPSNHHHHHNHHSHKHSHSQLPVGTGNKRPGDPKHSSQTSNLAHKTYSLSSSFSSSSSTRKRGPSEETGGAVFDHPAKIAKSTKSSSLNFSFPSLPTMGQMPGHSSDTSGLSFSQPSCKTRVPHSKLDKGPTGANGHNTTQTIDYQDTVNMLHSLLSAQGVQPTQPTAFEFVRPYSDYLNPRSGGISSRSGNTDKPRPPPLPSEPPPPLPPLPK
T1 sequence (P12931 whole entry): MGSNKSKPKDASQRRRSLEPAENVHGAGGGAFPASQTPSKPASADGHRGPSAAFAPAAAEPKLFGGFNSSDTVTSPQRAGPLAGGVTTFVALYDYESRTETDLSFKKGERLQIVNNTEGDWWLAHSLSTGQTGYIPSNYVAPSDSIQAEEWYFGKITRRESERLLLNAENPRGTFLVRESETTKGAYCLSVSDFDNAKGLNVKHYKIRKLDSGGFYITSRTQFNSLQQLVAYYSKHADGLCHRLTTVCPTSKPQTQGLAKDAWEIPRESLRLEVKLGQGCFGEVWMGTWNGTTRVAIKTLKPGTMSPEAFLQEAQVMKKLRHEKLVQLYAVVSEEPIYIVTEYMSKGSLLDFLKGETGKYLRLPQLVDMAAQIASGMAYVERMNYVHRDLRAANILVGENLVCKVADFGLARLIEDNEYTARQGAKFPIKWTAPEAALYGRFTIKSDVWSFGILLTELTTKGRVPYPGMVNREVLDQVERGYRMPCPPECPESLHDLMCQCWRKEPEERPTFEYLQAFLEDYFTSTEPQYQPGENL
T3 sequence (P00519 whole entry): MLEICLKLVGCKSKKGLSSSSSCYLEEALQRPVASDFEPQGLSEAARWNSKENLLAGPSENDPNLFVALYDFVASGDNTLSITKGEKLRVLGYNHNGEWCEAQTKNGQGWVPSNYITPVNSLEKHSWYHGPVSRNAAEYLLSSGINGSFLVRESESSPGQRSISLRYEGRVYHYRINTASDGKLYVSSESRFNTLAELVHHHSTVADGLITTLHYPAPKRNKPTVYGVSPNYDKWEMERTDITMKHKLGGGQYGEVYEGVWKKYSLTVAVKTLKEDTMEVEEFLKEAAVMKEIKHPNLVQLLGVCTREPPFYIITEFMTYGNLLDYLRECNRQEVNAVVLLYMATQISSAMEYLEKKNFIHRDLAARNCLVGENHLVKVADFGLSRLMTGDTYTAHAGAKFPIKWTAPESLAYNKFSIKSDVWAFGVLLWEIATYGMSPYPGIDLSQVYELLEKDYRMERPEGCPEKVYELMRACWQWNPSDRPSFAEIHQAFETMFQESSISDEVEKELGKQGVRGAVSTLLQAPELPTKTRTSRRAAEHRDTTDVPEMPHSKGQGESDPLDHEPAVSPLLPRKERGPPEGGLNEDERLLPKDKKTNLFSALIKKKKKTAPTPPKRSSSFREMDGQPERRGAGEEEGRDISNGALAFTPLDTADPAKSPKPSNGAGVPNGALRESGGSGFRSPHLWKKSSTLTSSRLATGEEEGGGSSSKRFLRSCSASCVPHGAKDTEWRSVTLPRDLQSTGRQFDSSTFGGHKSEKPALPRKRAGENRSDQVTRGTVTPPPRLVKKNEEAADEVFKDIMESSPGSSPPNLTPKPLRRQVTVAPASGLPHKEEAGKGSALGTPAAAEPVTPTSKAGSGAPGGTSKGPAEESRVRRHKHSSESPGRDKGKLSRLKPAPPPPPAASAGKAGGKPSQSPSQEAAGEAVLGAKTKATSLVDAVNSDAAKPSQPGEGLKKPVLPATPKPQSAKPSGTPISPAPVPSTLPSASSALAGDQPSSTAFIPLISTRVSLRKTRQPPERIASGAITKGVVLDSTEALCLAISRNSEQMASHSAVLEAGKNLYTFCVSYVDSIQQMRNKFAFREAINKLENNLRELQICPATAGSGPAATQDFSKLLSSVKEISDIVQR

| Structure (SMILES) | IC50 [1] | IC50 [2] | IC50 [3] | IC50 [4] | IC50 [5] | IC50 [6] |
| --- | --- | --- | --- | --- | --- | --- |
| COCCOCCOc1cc2ncn(-c3ccc(C#N)cn3)c2nc1N(C)[C@H]1CC[C@@](C)(O)CC1 [Compound 13, 6-[5-[((cis-1,4)-4-hydroxy-4-methyl-cyclohexyl)-methyl-amino]-6-[2-(2-methoxyethoxy)ethoxy]imidazo[4,5-b]pyridin-3-yl]pyridine-3-carbonitrile] |  |  |  | 39.1 nM |  |  |
| N#Cc1ccc(-n2cnc3cc(OCCOCCO)c(N[C@@H]4COCC[C@@H]4O)nc32)nc1 (relative stereo) [Compound 11, 6-[6-[2-(2-hydroxyethoxy)ethoxy]-5-[[(cis-3,4)-4-hydroxytetrahydropyran-3-yl]amino]imidazo[4,5-b]pyridin-3-yl]pyridine-3-carbonitrile] | > 1330 nM | > 1330 nM |  | 14.3 nM | 834 nM | > 1330 nM |
| N#Cc1ccc(-n2cnc3cc(OCCOCCO)c(NC4CCCC(O)C4)nc32)nc1 (centres unmarked) [Compound 6, 6-{5-(3-hydroxy-cyclohexylamino)-6-[2-(2-hydroxy-ethoxy)-ethoxy]-imidazo[4,5-b]pyridin-3-yl}-nicotinonitrile] | 754 nM | 2670 nM | 656 nM | 4.85 nM | 1030 nM | > 4000 nM |
| COCCOCCOc1cc2ncn(-c3ccc(C#N)cn3)c2nc1N[C@H]1CC[C@@](C)(O)CC1 [Compound 14, 6-[5-[((cis-1,4)-4-hydroxy-4-methylcyclohexyl)amino]-6-[2-(2-methoxyethoxy)ethoxy]imidazo[4,5-b]pyridin-3-yl]pyridine-3-carbonitrile] | 319 nM | 1380 nM |  | 3.45 nM | 1390 nM | 2240 nM |
| CN(c1nc2c(cc1OCCOCCO)ncn2-c1ccc(C#N)cn1)[C@H]1CC[C@@](C)(O)CC1 [Compound 3, 6-{6-[2-(2-hydroxy-ethoxy)-ethoxy]-5-[((cis-1,4)-4-hydroxy-4-methyl-cyclohexyl)-methyl-amino]-imidazo[4,5-b]pyridin-3-yl}-nicotinonitrile] |  |  |  | 21.7 nM |  |  |

More lines, in order of falling IC50 [4], values ahead:

| IC50 [1] | IC50 [2] | IC50 [3] | IC50 [4] | IC50 [5] | IC50 [6] | Structure (SMILES) |
| --- | --- | --- | --- | --- | --- | --- |
|  |  |  | 523 nM |  |  | COCCOCCOc1cc2ncn(-c3ccc(C#N)cn3)c2nc1N(C)C1CCOCC1 [Compound 4, 6-{6-[2-(2-methoxy-ethoxy)-ethoxy]-5-[methyl-(tetrahydro-pyran-4-yl)-amino]-imidazo[4,5-b]pyridin-3-yl}-nicotinonitrile] |
|  |  |  | 51.4 nM |  |  | N#Cc1ccc(-n2cnc3cc(OCCOCCOS(=O)(=O)O)c(NC4CCOCC4)nc32)nc1 [Compound 8, sulfuric acid mono-(2-{2-[3-(5-cyano-pyridin-2-yl)-5-(tetrahydro-pyran-4-ylamino)-3H-imidazo[4,5-b]pyridin-6-yloxy]-ethoxy}-ethyl) ester] |
| > 1330 nM | > 1330 nM |  | 25.4 nM | 712 nM | > 1330 nM | N#Cc1ccc(-n2cnc3cc(OCCOCCO)c(NC4CCS(=O)(=O)CC4)nc32)nc1 [Compound 2, 6-{5-(1,1-dioxo-tetrahydro-2H-thiopyran-4-ylamino)-6-[2-(2-hydroxy-ethoxy)-ethoxy]-imidazo[4,5-b]pyridin-3-yl}-nicotinonitrile] |
|  |  |  | 14.3 nM |  |  | N#Cc1ccc(-n2cnc3cc(OCCOCCO)c(NC4CCC(F)(F)CC4)nc32)nc1 [Compound 7, 6-{5-(4,4-difluoro-cyclohexylamino)-6-[2-(2-hydroxy-ethoxy)-ethoxy]-imidazo[4,5-b]pyridin-3-yl}-nicotinonitrile] |
| > 2940 nM | > 4000 nM | 2690 nM | 13.8 nM | 2290 nM | > 4000 nM | COCCOCCOc1cc2ncn(-c3ccc(C#N)cn3)c2nc1NC1CCOCC1 [Compound 5, 6-[6-[2-(2-methoxy-ethoxy)-ethoxy]-5-(tetrahydro-pyran-4-ylamino)-imidazo[4,5-b]pyridin-3-yl]-nicotinonitrile] |
| 286 nM | > 4000 nM | 633 nM | 13.5 nM | 639 nM | 3250 nM | CC(C)[C@H](N)C(=O)OCCOCCOc1cc2ncn(-c3ccc(C#N)cn3)c2nc1NC1CCOCC1 [Compound 9, (S)-2-amino-3-methyl-butyric acid 2-{2-[3-(5-cyano-pyridin-2-yl)-5-(tetrahydro-pyran-4-ylamino)-3H-imidazo[4,5-b]pyridin-6-yloxy]-ethoxy}-ethyl ester] |
